Assay results as given in ChEMBL document CHEMBL1125118, “Penta- and hexadienoic acid derivatives: a novel series of 5-lipoxygenase inhibitors” (J Med Chem, 1990).

Legend:
[1] = test system: Mus musculus; assay: In vivo inhibition of ear oedema in mice following p.o. administration.; type: functional; conditions: po
[2] = molecular target: T1, Cyclooxygenase (Rattus norvegicus, UniProt P35355+Q63921); assay: In vitro for prostaglandin G/H synthase inhibitory activity against rat basophil leukemia type 1 cell homogenates, by measuring the radioactivity of [14C]-PGD2
T1 sequence (P35355 whole entry): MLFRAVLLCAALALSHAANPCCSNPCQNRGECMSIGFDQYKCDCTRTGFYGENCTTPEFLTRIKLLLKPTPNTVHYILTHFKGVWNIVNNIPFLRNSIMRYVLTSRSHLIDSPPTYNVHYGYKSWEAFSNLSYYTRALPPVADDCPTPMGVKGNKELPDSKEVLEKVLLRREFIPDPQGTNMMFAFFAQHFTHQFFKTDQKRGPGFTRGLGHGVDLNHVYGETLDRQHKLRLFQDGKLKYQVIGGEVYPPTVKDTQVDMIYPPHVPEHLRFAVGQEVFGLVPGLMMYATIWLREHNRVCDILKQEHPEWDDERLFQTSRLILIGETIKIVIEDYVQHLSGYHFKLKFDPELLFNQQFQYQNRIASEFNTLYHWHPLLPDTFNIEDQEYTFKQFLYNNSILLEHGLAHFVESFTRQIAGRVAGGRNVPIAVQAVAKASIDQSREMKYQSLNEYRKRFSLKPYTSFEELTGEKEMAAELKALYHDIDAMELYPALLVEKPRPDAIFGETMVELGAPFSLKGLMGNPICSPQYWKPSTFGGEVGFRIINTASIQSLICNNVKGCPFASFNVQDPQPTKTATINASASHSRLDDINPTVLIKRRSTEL
T1 sequence (Q63921 whole entry): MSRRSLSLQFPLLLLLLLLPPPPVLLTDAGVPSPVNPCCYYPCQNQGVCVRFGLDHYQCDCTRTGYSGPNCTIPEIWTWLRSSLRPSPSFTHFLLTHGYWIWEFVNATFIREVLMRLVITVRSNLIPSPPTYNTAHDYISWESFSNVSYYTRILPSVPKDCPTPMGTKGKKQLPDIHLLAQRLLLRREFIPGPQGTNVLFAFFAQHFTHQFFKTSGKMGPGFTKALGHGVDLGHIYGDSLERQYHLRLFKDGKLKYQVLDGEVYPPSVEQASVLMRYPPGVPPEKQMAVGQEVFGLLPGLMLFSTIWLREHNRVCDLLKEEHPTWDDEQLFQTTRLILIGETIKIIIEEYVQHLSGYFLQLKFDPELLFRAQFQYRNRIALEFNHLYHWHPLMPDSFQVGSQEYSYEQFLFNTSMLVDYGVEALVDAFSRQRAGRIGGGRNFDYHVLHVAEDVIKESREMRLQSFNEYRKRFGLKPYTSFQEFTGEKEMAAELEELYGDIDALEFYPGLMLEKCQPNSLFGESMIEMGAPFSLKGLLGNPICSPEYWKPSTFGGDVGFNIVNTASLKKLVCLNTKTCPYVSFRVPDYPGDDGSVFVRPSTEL

[3] = test system: Mus musculus; assay: In vivo inhibition of AA induced ear oedema in mice following topical administration.; type: functional
[4] = molecular target: T2, Polyunsaturated fatty acid 5-lipoxygenase (Rattus norvegicus, UniProt P12527); assay: In vitro inhibitory activity against 5-Lipoxygenase in rat by Peritoneal 5-lipoxygenase assay
T2 sequence (P12527 whole entry): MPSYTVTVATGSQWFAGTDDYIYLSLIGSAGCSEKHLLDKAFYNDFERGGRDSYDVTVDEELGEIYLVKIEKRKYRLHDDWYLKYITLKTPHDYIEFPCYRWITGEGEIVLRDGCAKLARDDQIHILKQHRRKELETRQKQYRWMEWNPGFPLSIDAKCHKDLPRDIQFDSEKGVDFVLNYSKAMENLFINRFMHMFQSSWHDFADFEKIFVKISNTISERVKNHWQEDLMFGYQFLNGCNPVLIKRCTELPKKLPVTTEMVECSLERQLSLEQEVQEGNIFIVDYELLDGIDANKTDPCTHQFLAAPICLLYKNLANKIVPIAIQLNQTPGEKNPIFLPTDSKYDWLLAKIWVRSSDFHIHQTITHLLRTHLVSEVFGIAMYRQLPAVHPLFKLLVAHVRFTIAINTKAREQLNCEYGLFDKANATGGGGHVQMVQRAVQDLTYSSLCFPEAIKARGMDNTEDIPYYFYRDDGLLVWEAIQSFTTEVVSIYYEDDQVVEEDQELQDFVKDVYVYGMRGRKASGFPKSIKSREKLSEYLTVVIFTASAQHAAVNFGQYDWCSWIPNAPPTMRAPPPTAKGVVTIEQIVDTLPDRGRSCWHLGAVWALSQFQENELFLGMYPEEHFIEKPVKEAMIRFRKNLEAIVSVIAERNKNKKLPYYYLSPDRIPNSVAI

[5] = molecular target: T2, Polyunsaturated fatty acid 5-lipoxygenase; assay: Iin vitro inhibition of 5-lipoxygenase activity in rat basophil leukemia type 1(RBL1) cell homogenates, (reduction of [14C]-5-HETE formation)
[6] = molecular target: T2, Polyunsaturated fatty acid 5-lipoxygenase; assay: In vitro inhibition of 5-lipoxygenase in rat (peritoneal assay)

Row | IC50 [2] [µM] | SMILES | ED50 [1] [mg/kg] | ED50 [3] [mg ear-1] | also measured
1 | 6 | NC1=NN(c2cccc(C(F)(F)F)c2)CC1 [BW-755C] | 75 | 0.08 | 
2 |  | CCOC(=O)C(=O)C=C/C(Sc1ccccc1)=C(\O)c1ccccc1 |  | >2 | 
3 |  | CC1=NN(CCOc2ccc3ccccc3c2)C(=O)C1 [NAFAZATROM] | > 100 | 2 | 
4 |  | CCO/C(O)=C(/C=CC=O)Sc1ccccc1 |  | 2 | 
5 | > 50 | CCOC(=O)C(=CC=C(SC)C(=O)c1ccccc1)N(C)C |  |  | IC50 [4]: > 50 µM; IC50 [5]: > 50 µM
6 | > 50 | CC(Cc1ccc(O)c(O)c1)C(C)Cc1ccc(O)c(O)c1 (stereo not given) [NORDIHYDROGUAIARETIC ACID] | > 100 | 0.1 | 
7 |  | CCOC(=O)C(=O)C=C/C(SCc1ccccc1)=C(\O)OCC |  | >2 | 
8 | 12 | CCO/C(O)=C(/C=CC(=O)C(=O)c1ccccc1)Sc1ccccc1 | > 50 | >2 | IC50 [6]: 3 µM; IC50 [5]: 2 µM
9 |  | CCOC(=O)C(=O)C=C/C(=C(\O)OCC)c1ccccc1 |  | >2 | 
10 |  | O=C(O)C(O)=CC=Cc1ccccc1 |  | >5 | 
11 |  | CC(C)(C)c1cc(/C=C2\CCOC2=O)cc(C(C)(C)C)c1O | 100 | 0.3 | 
12 |  | CCSC(=CC=C(O)C(=O)O)C(=O)O |  | >0.5 | 
13 |  | CCOC(=O)C(=CC=C(C(=O)OCC)N(C)C)Sc1ccccc1 |  | >2 | 
14 |  | CCOC(=O)C(=O)C=C/C(C(=O)c1ccccc1)=C(\O)OCC |  | >2 | 
15 |  | CCOC(=O)C(=O)C=C/C(O)=C(\O)OCC |  | >2 | 

Row | SMILES | IC50 [2] [µM] | ED50 [1] [mg/kg] | ED50 [3] [mg ear-1] | also measured
16 | O=c1c(O)c(-c2ccc(O)c(O)c2)oc2cc(O)cc(O)c12 [QUERCETIN] | > 50 | > 100 | 1 | 
